Values belong to the compound of their own block, whether it stands above or below them.
Assays:
young crickets [1] = assay: AMK-related synthetic compounds inducing long-term memories in young crickets; type: in vivo, Gryllus bimaculatus; conditions: 3 μl of 1 μg/ml to the brain 20 minutes after single-time training
Procedure: Male (young) crickets about one week old following molting into their adult stage were used. Each of the crickets was placed in a 100 ml beaker three days before the experiment, and deprived of water for 2-3 days to enhance the desire of taking water. As the feed, about 10 pieces of insect feed were placed into the beaker.
In the same manner as “1.2, Olfactory associative conditioning” in Example 1, learning/training for smell and reward associative conditioning was conducted.
In the same manner as “1.3. Smell preference test” in Example 1, a test of smell preference was carried out.
As drugs, the AMK-related synthetic compounds (Compounds 1-10) synthesized in Example 2 above were used. For all of the drugs, 1 mg of the drug was initially dissolved in 100 μl of DMSO, and then diluted with physiological saline for crickets that was 10000 times the amount of the drug solution (final concentration: 1 μg/ml). In the administration experiments, 3 μl was administered to the brain via an aperture opened through a simple eye of the head using a 10-μl syringe.
Processing was conducted in the same manner as “1.5. Statistical processing” in Example 1.

young crickets [2] = assay: Olfactory associative learning test in young crickets (single-time training, memory a day after); type: in vivo, Gryllus bimaculatus; conditions: for long-term memory formation a day after the training: 3 μl to the brain
Procedure: Male crickets about one week old (young) or three week old (aged) following molting into adult forms were used. Each of the crickets was placed into a 100 ml beaker three days before the experiment, and deprived of water for 2-3 days to enhance the desire of taking water. As the feed, about 10 pieces of insect feed were placed into the beaker.
A 1-ml syringe was used for smell and reward associative conditioning upon learning/training. The syringe contained water as the reward while a piece of paper (3 mm×3 mm) perfumed with peppermint essence was pierced into the needle to about 1 cm from the tip thereof. In this learning/training, the filter paper on the needle was brought near the antennae of the cricket to allow it to smell for 3 seconds and then a drop of water was put out from the tip of the needle and applied to the mouth of the cricket. When the associative conditioning was conducted for four times, the conditionings were conducted at intervals of 5 minutes.
Smell preference was examined by placing each cricket into a test arena. The arena consisted of a “standby chamber” and a “test chamber”. The floor of the “test chamber” had two holes each with a diameter of 4 cm which were communicated with two smell sources. The smell source was a plastic pot containing filter paper perfumed with essence of a smell (peppermint or vanilla) and covered with a gauze lid. In the preference test, each cricket was placed into the test chamber and allowed to walk freely for 4 minutes to search for the two smell sources. Two minutes after the start of the test, a rotary board having the smell sources was rotated to reverse the positions of the vanilla and the peppermint smells. During the test, the time the cricket spent placing its mouth to the gauze of the smell source was measured as a visiting time to the smell source, and the ratio of the visiting times of the two types of smells (PI value: preference index) was calculated according to the following formula to assess the relative preference to the mint smell. PI value=Tp/(Tp+Tv)×100 • Tp: Searching time for smell associated with the reward (peppermint) • Tv: Searching time for smell not associated with the reward (vanilla)
If the preferences for the two smells are equivalent, PI will be 50. Since crickets inherently prefer vanilla smell over peppermint smell, an average PI value prior to the learning/training is usually 25-35, The preference test was conducted before and after the learning/training to examine whether preference for the smell changes due to the learning/training.
As drugs, melatonin, N(1)-acetyl-N(2)-formyl-5-methoxykynuramine (AFMK), N(1)-acetyl-5-methoxykynuramine (AMK), 6-Hydroxymelatonin (6-HM), L-kynurenine, kynuramine, 8-Bromoguanoine 3′,5′-cyclic monophosphate sodium salt (8 br-cGMP) and cycloheximide (CHX) were used. Melatonin, 6-HM, kynurenine, kynuramine and 8br-cGMP were purchased from SIGMA Aldrich, AFMK was purchased from Cayman Chemical, AMK was purchased from Toronto Research Chemicals and CHX was purchased from Wako Pure Chemical Industries. The drugs other than 8br-cGMP and CHX were first dissolved in ethanol and then diluted with physiological saline for crickets to the respective concentrations. In the administration experiment, 3 μl was administered using a 10-μl syringe to the brain via an aperture opened through a simple eye of the head.
PI values were tested before the training and a day after the training in the same group by a Wilcoxon's-test.

young mice = assay: Object recognition test for young mice (melatonin and melatonin metabolites); type: in vivo, ICR mice; conditions: i.p. 60 minutes after one one-minute acquisition trial, test trial 24 hours later
Procedure: Two-month-old male ICR mice (young mice) were used. The rearing room was kept at 22° C. at cycles of 12 hours of light period/12 hours of dark period, and feed and drinking water were given freely. All of the experiments were conducted during the latter 6 hours of the light period.
Melatonin (MEL), N(1)-acetyl-N(2)-formyl-5-methoxykynuramine (AFMK), and N(1)-acetyl-5-methoxykynuramine (AMK) were used as drugs. Melatonin was purchased from SIGMA Aldrich, AFMK was purchased from Cayman Chemical, and AMK was purchased from Toronto Research Chemicals. AFMK and AMK were diluted with physiological saline and intraperitoneally administered at a dosage of 0.01 mg/kg bw, 0.1 mg/kg bw or 1.0 mg/kg bw. MEL was diluted with physiological saline containing 1 vol % ethanol, and intraperitoneally administered at a dosage of 1.0 mg/kg bw or 5.0 mg/kg bw. As controls, physiological saline or physiological saline containing 1 vol % ethanol was intraperitoneally administered.
Test was conducted in the same manner as “5.3 Object recognition test” in Example 5.
Processing was conducted in the same manner as “5.4 Statistical processing” in Example 5.

aged crickets = assay: Olfactory associative learning test in aged crickets (age-related memory disorder, training four times); type: in vivo, Gryllus bimaculatus; conditions: 500 μM, 3 μl, 20 minutes before training for four times
Procedure: Male crickets about one week old (young) or three week old (aged) following molting into adult forms were used. Each of the crickets was placed into a 100 ml beaker three days before the experiment, and deprived of water for 2-3 days to enhance the desire of taking water. As the feed, about 10 pieces of insect feed were placed into the beaker. A 1-ml syringe was used for smell and reward associative conditioning upon learning/training. The syringe contained water as the reward while a piece of paper (3 mm×3 mm) perfumed with peppermint essence was pierced into the needle to about 1 cm from the tip thereof. In this learning/training, the filter paper on the needle was brought near the antennae of the cricket to allow it to smell for 3 seconds and then a drop of water was put out from the tip of the needle and applied to the mouth of the cricket. When the associative conditioning was conducted for four times, the conditionings were conducted at intervals of 5 minutes. Smell preference was examined by placing each cricket into a test arena. The arena consisted of a “standby chamber” and a “test chamber”. […] The smell source was a plastic pot containing filter paper perfumed with essence of a smell (peppermint or vanilla) and covered with a gauze lid. In the preference test, each cricket was placed into the test chamber and allowed to walk freely for 4 minutes to search for the two smell sources. Two minutes after the start of the test, a rotary board having the smell sources was rotated to reverse the positions of the vanilla and the peppermint smells. During the test, the time the cricket spent placing its mouth to the gauze of the smell source was measured as a visiting time to the smell source, and the ratio of the visiting times of the two types of smells (PI value: preference index) was calculated according to the following formula to assess the relative preference to the mint smell. PI value=Tp/(Tp+Tv)×100 • Tp: Searching time for smell associated with the reward (peppermint) • Tv: Searching time for smell not associated with the reward (vanilla) If the preferences for the two smells are equivalent, PI will be 50. Since crickets inherently prefer vanilla smell over peppermint smell, an average PI value prior to the learning/training is usually 25-35, The preference test was conducted before and after the learning/training to examine whether preference for the smell changes due to the learning/training. […] Melatonin, 6-HM, kynurenine, kynuramine and 8br-cGMP were purchased from SIGMA Aldrich, AFMK was purchased from Cayman Chemical, AMK was purchased from Toronto Research Chemicals and CHX was purchased from Wako Pure Chemical Industries. The drugs other than 8br-cGMP and CHX were first dissolved in ethanol and then diluted with physiological saline for crickets to the respective concentrations. In the administration experiment, 3 μl was administered using a 10-μl syringe to the brain via an aperture opened through a simple eye of the head. PI values were tested before the training and a day after the training in the same group by a Wilcoxon's-test.

[3] = 5 μM, 20 minutes after single-time training

Structure (SMILES): CCC(=O)NCCC(=O)c1cc(OC)ccc1N [Compound 2, N-[3-(2-amino-5-methoxyphenyl)-3-oxopropyl]-propionamide]
effect in inducing long-term memory compared with AMK (young crickets [1]): superior effects over AMK

Structure (SMILES): COc1ccc(N)c(C(=O)CCNC(=O)c2ccccc2)c1 [Compound 3, N-[3-(2-amino-5-methoxyphenyl)-3-oxopropyl]-benzamide]
effect in inducing long-term memory compared with AMK (young crickets [1]): superior effects over AMK

melting point: 134.5 to 136 °C
Structure (SMILES): COc1ccc(N)c(C(=O)CCNC(=O)c2ccccc2OC)c1 [Compound 5, N-[3-(2-amino-5-methoxyphenyl)-3-oxopropyl]-2-methoxybenzamide]

melting point: 113.5 to 114.5 °C
Structure (SMILES): COc1ccc(N)c(C(=O)CCNC(=O)c2ccc3ccccc3c2)c1 [Compound 6, N-[3-(2-amino-5-methoxyphenyl)-3-oxopropyl]-2-naphthamide]
effect in inducing long-term memory after one day (young crickets [1]): did not show significant difference with the number of individuals used this time but they showed a tendency to induce long-term memories

Structure (SMILES): COc1cc2c(CCNC(C)=O)c[nH]c2cc1O [Compound 6-HM, 6-Hydroxymelatonin, reference compound]
long-term memory formation a day after the training (young crickets [2]; [3]): a long-term memory was not formed | long-term memory formation a day after the training (young crickets [2]; 5 μM, 20 minutes before single-time training): a long-term memory was not formed

melting point: 114 to 115.5 °C
Structure (SMILES): COc1ccc(N)c(C(=O)CCNC(=O)c2ccccn2)c1 [Compound 7, N-[3-(2-amino-5-methoxyphenyl)-3-oxopropyl]-2-picolinamide]
effect in inducing long-term memory compared with AMK (young crickets [1]): superior effects over AMK

melting point: 121 to 122 °C
Structure (SMILES): CC(=O)NCCC(=O)c1cc(Cl)ccc1N [Compound 8, N-[3-(2-amino-5-chlorophenyl)-3-oxopropyl]-acetamide]
effect in inducing long-term memory after one day (young crickets [1]): did not show significant difference with the number of individuals used this time but they showed a tendency to induce long-term memories

Structure (SMILES): Nc1nc2c(nc(Br)n2[C@@H]2O[C@@H]3COP(=O)([O-])O[C@H]3[C@H]2O)c(=O)[nH]1.[Na+] [Compound 8br-cGMP, 8-Bromoguanoine 3′,5′-cyclic monophosphate sodium salt, reference compound]
long-term memory formation a day after the training (young crickets [2]; 200 μM, 20 minutes after single-time training): did not have the effect of inducing long-term memory | long-term memory formation a day after the training (young crickets [2]; 200 μM, 20 minutes before single-time training): confirmed

Structure (SMILES): CC(=O)NCCC(=O)c1ccccc1N [Compound 9, N-[3-(2-aminophenyl)-3-oxopropyl]acetamide]
effect in inducing long-term memory compared with AMK (young crickets [1]): superior effects over AMK

Structure (SMILES): COc1ccc(NC=O)c(C(=O)CCNC(C)=O)c1 [Compound 10, N-[3-(2-formylamino-5-methoxyphenyl)-3-oxopropyl]acetamide]
administration concentration sufficient to form long-term memory (young crickets [2]; 3 μl to the brain 20 minutes after single-time training): 1 µM | concentration at which the effect of inducing long-term memories was found (young mice): 1.0 mg/kg bw

melting point: 143 to 145 °C
Structure (SMILES): COc1ccc(NC(C)=O)c(C(=O)CCNC(C)=O)c1 [Compound 13, N-[3-(2-acetylamino-5-methoxyphenyl)-3-oxopropyl]acetamide]

Structure (SMILES): NCCC(=O)c1ccccc1N [Compound 15, 3-amino-1-(2-aminophenyl)-1-propanone]
long-term memory formation a day after the training (young crickets [2]; [3]): the long-term memories were formed

Structure (SMILES): Nc1ccccc1C(=O)CC(N)C(=O)O (stereo not drawn) [Compound 16, 3-[(2-aminophenyl)carbonyl]-2-aminopropionic acid]
long-term memory formation a day after the training (young crickets [2]; [3]): the long-term memories were formed

Structure (SMILES): N[C@@H](CCC(=O)N[C@@H](CS)C(=O)NCC(=O)O)C(=O)O [glutathione]
improvement in an age-related memory disorder (aged crickets): no improvement

Structure (SMILES): O=C1O[C@H]([C@@H](O)CO)C(O)=C1O [vitamin C]
improvement in an age-related memory disorder (aged crickets): no improvement

— patent US10266482B2, “Long-term memory inducing agent” (NATIONAL UNIVERSITY CORPORATION TOKYO MEDICAL AND DENTAL …, priority 2017, dated 2019)
